# From US7579373B2, “Targeted bisplatinum polyamines as pro-drugs: selective release of platinum” (Virginia Commonwealth University, priority 2002, dated 2009)
# Where two headings read alike, the source gives them in different places.
# Assays:
# [1] = type: physicochemical; details: for Rate constant for the deprotection: first order; for % 1 (percentage of 1 of the overall integration in the chromatogram after incubation): uncorrected
# Description: Analyses of the products and hydrolysis studies were carried out on an analytical Beckman System Gold Nouveau HPLC instrument with UV detection at 215 nm. A Lichrosphere RP-8 column (5 μm particle size, dimensions 250 mm×4 mm) was used with a solvent gradient from water/methanol 97:3 (0.05 M NaClO4, 1% NaCl) to water/methanol 70:30 (0.05 M NaClO4, 2% NaCl).
# Hydrolysis Study. For the hydrolysis experiments 10^−3 mMol complex were dissolved in 1 mL of nanopure water. The pH of the solutions was adjusted by addition of HNO3 (0.1 M, 0.01 M) and NaOH (0.1 M, 0.01 M), respectively. The samples were incubated in a water bath at 37° C. and aliquots of 20 μL were taken from the bulk solution for HPLC analysis. The pH values of the samples were controlled in regular intervals and readjusted if necessary.
# The hydrolysis of the protective groups of compounds 2-4 was monitored at 37° C. at various pH values. […] In addition, the chromatogram of 2 contained a peak of a minor impurity (ca 0.4%) which remained unchanged during the timecourse of the reaction. Deprotection of the secondary amino function leads to the appearance of a signal for the unprotected spermidine complex 1 that, as a consequence of the increased cationic charge, is well separated from the signal of the N4 blocked precursor. The area percentage of the integrated signal of the unprotected species is taken as an estimate for the amount of hydrolysis at a given timepoint. To allow for a more accurate quantitative comparison of results, the extinction coefficients for compounds 1-4 were determined at 215 nm (Table 1). The integral values of the blocked compounds have been corrected for the higher absorbance of these species at the observed wavelength compared to the unprotected species 1. Table 2 provides a summary of the amount of hydrolysis for all samples before and after the correction. Rate constants were calculated based on the corrected integral values.
# The hydrolysis of the blocking groups of on the N4 position of compounds 5-7 was monitored at 37° C. over a pH range of 6-8.
# The amount of 1,1/t,t-spermidine released over time is depicted in FIG. 8. No other products were detected, trifluoroacetate, originating from the hydrolysis reaction, is not retained on the column under the present conditions and coelutes with the other anions (Cl^− from 5, NO3^− from pH adjustment). In order to obtain rate constants for the conversion of 7 to 1,1/t,t-spermidine, the integral values of the chromatograms were corrected for the different absorption of the species at the observed wavelength (ε215: 1, 3.64·10^3; 5, 7.62·10^3; 6, 10.4·10^3; 7, 9.46·10^3 L.Mol^−1 .cm^−1). Concentrations were calculated based on the assumption that the sum of the concentrations of both species at every time point equals the original concentration of 7 at the start of the experiment. First order rate constants were obtained using the program MicroMath Scientist Version 2.01. The results are summarized in Table 3 and compared with values obtained for BOC and Fmoc protected spermidine complexes.
# L1210/0 [2] = assay: Growth inhibition in L1210/0 cells; type: cell-based, murine; details: 2 hours of exposure; mean (±SE), 3 experiments of 2 determinations
# Description: To examine the pro-drug potential in a biological setting, a comparison of the pharmacological properties of the blocked polyamine compounds in L1210 murine leukemia cells was undertaken.
# L1210/DDP [3] = assay: Growth inhibition in L1210/DDP cells; type: cell-based, murine; details: for IC50: 2 hours of exposure, mean (±SE), 3 experiments of 2 determinations; for RF, resistance factor: IC50 L1210/DDP / IC50 L1210/0, 2 hours of exposure
# L1210/0 [4] = assay: Cellular accumulation in L1210/0 cells; type: cell-based, murine; details: 2 hours of exposure; (±SE), 3 experiments of 2 determinations
# Description: (§1) Cellular accumulation. The cellular accumulation assays followed published procedures (7). Briefly, cells were resuspended at 10^7/mL in media supplemented with […]. Platinum complexes were added, and samples were incubated at 37° C. in 5% CO2. At 0 and 2 hours aliquots were removed for determination of cell concentrations and for measurement of platinum content. For the latter, aliquots were washed three times in cold phosphate buffered saline, resuspended in 1% Triton-X in water, and sonicated. Platinum content was measured by flameless atomic absorption spectroscopy.
# (§2) The cellular accumulation of the blocked Pt compound 2 was also investigated. […] Based solely on charge considerations the BOC-spermidine with a charge of 2+ should have cellular uptake similar to 1,1/t,t (n=6). The enhanced uptake could be explained by some hydrolysis in media or plasma producing small amounts of the protonated 1,1/t,t-spermidine. Considering the potency of polynuclear-polyamine compounds, a small percentage of hydrolysis could have a significant impact on in vivo activity.
# L1210/DDP [5] = assay: Cellular accumulation in L1210/DDP cells; type: cell-based, murine; details: 2 hours of exposure; (±SE), 3 experiments of 2 determinations
# Description: as §1, §2
# A2780 = assay: SRB growth inhibition assay, A2780; type: cell-based, human; details: 96 h exposure
# Description: (§3) Cell culture. A2780, A2780/CDDP, CH1, CH1/CDDP, 41M and 41M/CDDP cell lines were used in this study and maintained according to published procedures. (8,9).
# (§4) Growth inhibition assay. The Sulforhodamine B (SRB) assay was used to determine growth inhibition potency of platinum drugs (10). The cells were seeded in 96-well microtitre plates at 3-8×10^3 cells/well in 160 μL growth medium and allowed to attach overnight. Platinum agents were then added after serial dilution in quadruplicate wells and exposed to cells for 2 or 96 hours. After the 2 hours drug incubations were complete, plates were washed free of drug with phosphate-buffered saline (PBS) and then refed with normal growth medium for a further 94 hours. Quantitation of cell growth in treated and control wells was then assessed using 0.4% SRB dissolved in 1% acetic acid. IC50 values were determined graphically.
# (§5) Of special interest is the remarkably low value for 4 (Fmoc) in A2780 cells.
# A2780/CDDP = assay: SRB growth inhibition assay, A2780/CDDP; type: cell-based, human; details: for IC50: 96 h exposure; for RF A2780/CDDP: IC50 resistant/IC50 parent line, 96 h
# Description: as §3
# as §4, with “graphically. […]” for “graphically.”
# CH1 = assay: SRB growth inhibition assay, CH1; type: cell-based, human; details: 96 h exposure
# Description: as §3, §4, §5
# CH1/CDDP = assay: SRB growth inhibition assay, CH1/CDDP; type: cell-based, human; details: for IC50: 96 h exposure; for RF CH1/CDDP: IC50 resistant/IC50 parent line, 96 h
# Description: as §3
# as §4, with “graphically. […]” for “graphically.”
# 41M = assay: SRB growth inhibition assay, 41M; type: cell-based, human; details: 96 h exposure
# Description: as §3, §4, §5
# 41M/CDDP = assay: SRB growth inhibition assay, 41M/CDDP; type: cell-based, human; details: for IC50: 96 h exposure, read-out: 96H IC50 CH1/CDDP; for RF CH1/CDDP: IC50 resistant/IC50 parent line, 96 h
# Description: as §3, §4, §5
# [6] = pH 5, 37° C., time 42 d (2), 30 d (3), 41 d (4)
# [7] = pH 6, 37° C., time 42 d (2), 42 d (3), 41 d (4)
# [8] = pH 7, 37° C., time 25 d (2), 41 d (4)
Compound,"% 1, corrected for the different extinction coefficients at 215 nm [1, 6]","% 1, corrected for the different extinction coefficients at 215 nm [1, 7]","Rate constant for the deprotection ([1]; pH 6, 37° C.)","Rate constant for the deprotection ([1]; pH 7, 37° C.)",IC50 (L1210/0 [2]) [µM],IC50 (L1210/DDP [3]) [µM],"RF, resistance factor (L1210/DDP [3])",Accumulation L1210/0 (L1210/0 [4]),Accumulation L1210/DDP (L1210/DDP [5]),IC50 (A2780) [µM],IC50 (A2780/CDDP) [µM],RF A2780/CDDP (A2780/CDDP),IC50 (CH1) [µM],IC50 (CH1/CDDP) [µM],RF CH1/CDDP (CH1/CDDP),IC50 (41M) [µM],other results
"CC(C)(C)OC(=O)N(CCCN)CCCCN.N.N.N.N.[Cl-].[Cl-].[Cl][Pt+].[Cl][Pt+] [Compound 2, [{trans-Pt(NH3)2Cl}2——N^4-BOC-spermidine-N^1,N^8]Cl2]",[15.1] %,[13.8] %,4.29 (±0.05) · 10^−8 s^−1,3.12 (±0.04) · 10^−8 s^−1,1.25,4.6,3.7,5.0 (0.63) attamol Pt complex/cell,4.8 (0.75) attamol Pt complex/cell,2.1,19,9.0,8,11,1.4,17,"Rate constant for the deprotection ([1]; pH 5, 37° C.): 4.65 (±0.04) · 10^−8 s^−1; Rate constant for the deprotection ([1]; pH 6.6, 37° C.): 3.51 (±0.05) · 10^−8 s^−1; % 1, corrected for the different extinction coefficients at 215 nm [1, 8]: [6.6] %"
"N.N.N.N.NCCCCN(CCCN)C(=O)OCC1c2ccccc2-c2ccccc21.[Cl-].[Cl-].[Cl][Pt+].[Cl][Pt+] [Compound 4, [{trans-Pt(NH3)2Cl}2——N^4-Fmoc-spermidine-N^1,N^8]Cl2]",[1.0] %,[3.0] %,9.74 (±0.88) · 10^−9 s^−1,6.12 (±0.09) · 10^−8 s^−1,,,,,,0.84,65,77,46,62,1.3,> 100,"Rate constant for the deprotection ([1]; pH 5, 37° C.): 3.99 (±0.96) · 10^−9 s^−1; % 1 (percentage of 1 of the overall integration in the chromatogram after incubation) [1, 6]: 0.14%; hydrolyzed species observed (HPLC profile) ([1]; pH 5 and 6, 37° C.): only minor amounts; % 1 (percentage of 1 of the overall integration in the chromatogram after incubation) [1, 7]: 0.45%; % 1, corrected for the different extinction coefficients at 215 nm [1, 8]: [19.6] %; % 1 (percentage of 1 of the overall integration in the chromatogram after incubation) [1, 8]: 3.4%; free spermidine complex released (HPLC profile) ([1]; pH 7 and 8, 37° C.): considerable amounts; % 1, corrected for the different extinction coefficients at 215 nm ([1]; pH 8, 37° C., time 30 d (4)): [35.2] %; Rate constant for the deprotection ([1]; pH 8, 37° C.): 1.44 (±0.07) · 10^−7 s^−1; % 1 (percentage of 1 of the overall integration in the chromatogram after incubation) ([1]; pH 8, 37° C., time 30 d (4)): 7.3%"
"N.N.N.N.NCCCCN(CCCN)C(=O)C(F)(F)F.[Cl-].[Cl-].[Cl][Pt+].[Cl][Pt+] [Compound 7, [{trans-Pt(NH3)2Cl}2-μ-N^4—CF3CO-spermidine-N^1,N^8]Cl2]",,,4.44 (±0.11) · 10^−8 s^−1,2.73 (±0.06) · 10^−7 s^−1,,,,,,6.8,46,6.8,2.4,5,2.1,3.7,"Rate constant for the deprotection ([1]; pH 8, 37° C.): 1.79 (±0.03) · 10^−6 s^−1; IC50 (41M/CDDP): 19 µM; RF CH1/CDDP (41M/CDDP): 5.1"
"N.N.[Cl][Pt][Cl] [cisplatin, reference compound]",,,,,1.3,59,44,5.0 (0.89) attamol Pt complex/cell,1.5 (0.76^ attamol Pt complex/cell,1.6,12,7.5,0.34,1.1,3.2,2.3,
"N.N.N.N.NCCCCN(CCCN)C(=O)OCc1ccccc1.[Cl-].[Cl-].[Cl][Pt+].[Cl][Pt+] [Compound 3, [{trans-Pt(NH3)2Cl}2— —N^4-CBz-spermidine-N^1,N^8]Cl2]",[0.13] %,[0.12] %,,,,,,,,24,100,4.2,25,43,1.7,> 100,"% 1 (percentage of 1 of the overall integration in the chromatogram after incubation) [1, 6]: 0.05%; amount of 1 detected in the samples ([1]; pH 5 and 6, 37° C., over the complete timecourse): below 0.1%; % 1 (percentage of 1 of the overall integration in the chromatogram after incubation) [1, 7]: 0.05%"
"CC(=O)N(CCCN)CCCCN.N.N.N.N.[Cl-].[Cl-].[Cl][Pt+].[Cl][Pt+] [Compound 5, [{trans-Pt(NH3)2Cl}2-μ-N^4—CH3CO-spermidine-N^1,N^8]Cl2]",,,,,,,,,,14,54,3.9,7.4,12.5,1.7,17.5,IC50 (41M/CDDP): 24 µM; RF CH1/CDDP (41M/CDDP): 1.4
"N.N.N.N.NCCCCCCN.[Cl][Pt+].[Cl][Pt+] [1,1/tt, [trans-{PtCl(NH3)2}2H2N(CH2)6NH2]^2+, reference compound]",,,,,3.7,16,4.3,3.8 (0.70) attamol Pt complex/cell,0.67 (0.21) attamol Pt complex/cell,,,,,,,,
